One series deals with HIV-1Bal.01. The class given is cell-based. To be noted: cutoff 10 μM.
The target in series [1] is monomeric wild type gp120 YU-2 (Human immunodeficiency virus type 1 group M subtype B, UniProt P35961). Briefly: Isothermal titration calorimetry. It counts as binding, HIV-1. To be noted: ITC, 25°C, 1× PBS pH 7.3.
The subject of the next series is HOS.T4.R5 cells. Nature of the series: Cytotoxicity / cell viability assay. The class given is cell-based. The conditions noted are these: WST-1, 24 h post-exposure, highest concentration used 100 μM.
For series [2], the target named is HIV-1 YU-2 gp120 binding to sCD4 (Human immunodeficiency virus type 1 group M subtype B, UniProt P35961). Briefly: SPR competition assay, inhibition of gp120 binding to CD4. To be noted: 250 nM YU-2 gp120, 25°C, PBS pH 7.4, triplicate.

Values joined by “and” are separate entries in the source; they are usually repeats but may differ in a detail not shown here. Equal values may be shown once. Numbered stars: 1 amine (or outer) side, 2 acyl side, 3 side chain; on linkers, the order of the positions; unused ones are H or OH. Bridge positions count the residues as written; N and C are the ends. Square brackets hold non-standard residues; d marks the D form. Peptide text beside a SMILES is read from it. X2 = O=C([C@@H]1C[C@H](n2cc(C3=CC=C[CH]3[Fe][CH]3C=CC=C3)nn2)CN1[*:1])[*:2]; X1 = O=C([C@@H]1C[C@H](n2cc(-c3ccc(-c4cccs4)cc3)nn2)CN1[*:1])[*:2]

As for cPT 11, the “Activity designation in HIV-1Bal.01 infection inhibition assay” value in the series on HIV-1Bal.01 is reported as “weak (the compound showed weak inhibition (less than 50%) at 10 μM)”.

As for `CC[C@H](C)[C@@H]1NC(=O)[C@H](CC(N)=O)NC(=O)[C@@H](N)CC(=O)NCCCC[C@@H](C(N)=O)NC(=O)[C@H](Cc2c[nH]c3ccccc23)NC(=O)[C@@H]2C[C@H](n3cc(-c4ccc(-c5cccs5)cc4)nn3)CN2C1=O` [cPT 36] (H-DNI[X1]WK-NH2; lactam 1-6), in series [1], the ΔH was -4.07 ± 0.06 kcal/mol, the ΔS turned out to be 0.0159 kcal/mol and the “−TΔS” value was -4.74 kcal/mol. In the series on HOS.T4.R5 cells, the “Cytotoxicity (cell viability)” value is recorded as “no cytotoxicity was detected”. The “Inhibition of gp120 binding to CD4” value in series [2] is listed as “inhibited”.

Take `CC[C@H](C)[C@@H]1NC(=O)[C@H](CC(N)=O)NC(=O)[C@@H](N)CC(=O)NCCCC[C@@H](C(N)=O)NC(=O)[C@H](Cc2c[nH]c3ccccc23)NC(=O)[C@@H]2C[C@H](n3cc(C4=CC=C[CH]4[Fe][CH]4C=CC=C4)nn3)CN2C1=O` (stereo partly drawn) [cPT 3] (H-DNI[X2]WK-NH2; lactam 1-6): in series [1], the ΔH was -5.96 kcal/mol and -5.96 ± 0.13 kcal/mol; the ΔS came out at 0.00922 kcal/mol; the “−TΔS” value was -2.75 kcal/mol.

(Values after article PMC5614861 (Organic & biomolecular chemistry, 2017).)
